Measured values published in patent US5288720A, “Angiotensin II receptor blocking 2,3,6 substituted quinazolinones” (American Cyanamid Company, priority 1993, dated 1994).

Tests used:
[1] = biological target: T1, Angiotensin II Receptor (Bos taurus, UniProt P25104); test: Receptor Binding Assay: Binding of [^125 I](Sar^1,Ile^8)AngII to beef adrenal cortex membranes; details: 60 min, room temperature
T1 construct: The brownish tissue forming the adrenal cortex is scraped off and finely minced with scissors before homogenization; from tissue; host or cells: beef adrenal cortex, microsomal membranes (100,000×g pellet); fresh glands from a local slaughter house (Maxwell-Cohen)
T1 sequence (P25104 1-359): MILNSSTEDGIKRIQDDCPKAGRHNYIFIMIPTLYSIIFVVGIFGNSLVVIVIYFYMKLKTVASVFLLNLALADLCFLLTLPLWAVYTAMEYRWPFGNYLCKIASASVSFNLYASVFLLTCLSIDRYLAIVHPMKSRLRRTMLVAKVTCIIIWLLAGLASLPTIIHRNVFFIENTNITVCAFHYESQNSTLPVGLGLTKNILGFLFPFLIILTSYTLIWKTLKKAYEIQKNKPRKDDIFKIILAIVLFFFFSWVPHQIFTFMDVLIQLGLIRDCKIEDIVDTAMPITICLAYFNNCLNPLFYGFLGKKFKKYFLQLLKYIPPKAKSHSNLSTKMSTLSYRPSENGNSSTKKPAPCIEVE
In short: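 Competition binding of [125I](Sar1,Ile8)AngII (2200 Ci/mmole) to bovine adrenal cortex membranes (100,000×g pellet) in 50.0 mM Tris.HCl, pH 7.2, 0.1 mM PMSF. Compounds were added in DMSO and incubated 60 min at room temperature, in triplicate. Bound ligand was filtered onto PEI-presoaked filters and gamma-counted, with nonlinear analysis.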

[2] = system: ANGIOTENSIN II VASOPRESSOR RESPONSE; test: AII Challenge: blockade of angiotensin II vasopressor response in conscious SHR; assay type: in vivo, rat (Conscious Male Okamoto-Aoki SHR); details: SHR n=2, 3 mg/kg i.v.
In short: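 Conscious male Okamoto-Aoki SHR (16-20 weeks, ~330 g) cannulated in aorta and vena cava under local procaine; angiotensin II (human) 0.05 and 0.1 ug/kg i.v. given before and at 30-300 min after test compound i.v., i.p. or orally. Rise in systolic pressure (mmHg) expressed as % blockade versus each rat's predose response.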

[3] = AII 0.05 mcg/kg IV, 30 min post dose
[4] = AII 0.05 mcg/kg IV, 60 min post dose
[5] = AII 0.05 mcg/kg IV, 90 min post dose
[6] = AII 0.05 mcg/kg IV, 120 min post dose
[7] = AII 0.05 mcg/kg IV, 180 min post dose
[8] = AII 0.05 mcg/kg IV, 240 min post dose
[9] = AII 0.05 mcg/kg IV, 300 min post dose
[10] = AII 0.1 mcg/kg IV, 30 min post dose
[11] = AII 0.1 mcg/kg IV, 60 min post dose
[12] = AII 0.1 mcg/kg IV, 90 min post dose
[13] = AII 0.1 mcg/kg IV, 120 min post dose
[14] = AII 0.1 mcg/kg IV, 180 min post dose
[15] = AII 0.1 mcg/kg IV, 240 min post dose
[16] = AII 0.1 mcg/kg IV, 300 min post dose

CCCCc1nc2ccc(C(C)(O)C3CCCN(C)C3=O)cc2c(=O)n1Cc1ccc(-c2ccccc2-c2nn[nH]n2)cc1 (single isomer, unassigned; isomer 2) [Example 53, 2-Butyl-6-[1-hydroxy(1-methyl-2-oxo-3-piperidinyl)ethyl]-3-[[2'-(1H-tetrazol-5-yl)[1,1'-biphenyl]-4-yl]methyl]-4(3H)-quinazolinone isomer 2]
IC50 [1]: 54 nM | % Inhibition of AII vasopressor response [2, 3]: 89% | Average Change (systolic blood pressure response to AII) [2, 3]: 5 mmHg | % Inhibition of AII vasopressor response [2, 4]: 89% | Average Change (systolic blood pressure response to AII) [2, 4]: 5 mmHg | % Inhibition of AII vasopressor response [2, 5]: 58% | Average Change (systolic blood pressure response to AII) [2, 5]: 20 mmHg | % Inhibition of AII vasopressor response [2, 6]: 58% | Average Change (systolic blood pressure response to AII) [2, 6]: 20 mmHg | % Inhibition of AII vasopressor response [2, 7]: 37% | Average Change (systolic blood pressure response to AII) [2, 7]: 30 mmHg | % Inhibition of AII vasopressor response [2, 8]: 58% | Average Change (systolic blood pressure response to AII) [2, 8]: 20 mmHg | % Inhibition of AII vasopressor response [2, 9]: 53% | Average Change (systolic blood pressure response to AII) [2, 9]: 22.5 mmHg | % Inhibition of AII vasopressor response [2, 10]: 76% | Average Change (systolic blood pressure response to AII) [2, 10]: 12.5 mmHg | % Inhibition of AII vasopressor response [2, 11]: 61% | Average Change (systolic blood pressure response to AII) [2, 11]: 20 mmHg | % Inhibition of AII vasopressor response [2, 12]: 76% | Average Change (systolic blood pressure response to AII) [2, 12]: 12.5 mmHg | % Inhibition of AII vasopressor response [2, 13]: 61% | Average Change (systolic blood pressure response to AII) [2, 13]: 20 mmHg | % Inhibition of AII vasopressor response [2, 14]: 42% | Average Change (systolic blood pressure response to AII) [2, 14]: 30 mmHg | % Inhibition of AII vasopressor response [2, 15]: 43% | Average Change (systolic blood pressure response to AII) [2, 15]: 29.5 mmHg | % Inhibition of AII vasopressor response [2, 16]: 17% | Average Change (systolic blood pressure response to AII) [2, 16]: 42.5 mmHg
